Assays:
[1] = Zeta potential in H2O (Malvern DLS zetasizer); assay type: physicochemical; details: OVA8 or CpG 5 µM, mean ± SD, n = 3
Source text: (§1) The size and zeta potential of LPn[OVA8/CpG/LLP2A] in H2O were detected by Malvern DLS zetasizer with the equivalent concentration of OVA8 or CpG at 5 µΜ. The morphology of LPn[OVA8/CpG/LLP2A] was visualized by transmission electron microscope (TEM, 80 kV FEI Talos 120C).

[2] = tested on: co‐culture of RF33.70 cells and the activated BMDCs; assay: IL-2 secretion from co-culture of pretreated BMDCs and RF33.70 cells (ELISA); assay type: cell-based, mouse; details: BMDCs pretreated 16 h at 1 µM, co-culture with RF33.70 16 h, n = 3
Procedure: The differentiation of BMDC from bone marrow cells was performed as previously described.^[ [48] ^] 2 × 10^4 cells/well BMDCs were suspended in 200 µL medium without adding IL‐2 and IL‐4. BMDCs were treated with LPn[OVA8/CpG/LLP2A] containing 1 or 2 µM of OVA8 for 16 h. Each group contains approximately equivalent concentrations of CpG and OVA8 based on the data in Table S1 (Supporting Information). After that, the cells were centrifuged at 320 g for 5 min to remove the uninternalized drugs. Then the BMDC cells were resuspended in RPMI medium and were co‐incubated with 10 × 10^4 cells/well of RF33.70 cells for another 16 h. After that, the medium supernatant was collected. The IL‐2 concentration was measured by IL‐2 Mouse ELISA Kit (Thermo Fisher).
For the blocking experiment, BMDC cells were pre‐incubated with an excess of LLP2A‐P4 (100 µM) for 1 h. Then the cells were washed three times with PBS, before the treatment of 1 µM LP11[OVA8/CpG/LLP2A] for 16 h. After that, the cells were washed three times with PBS to get rid of the uninternalized drugs, followed by co‐culturing with RF33.70 cells. The IL‐2 level was quantified by ELISA as mentioned above.

[3] = Hydrodynamic size by DLS (Malvern zetasizer) in water; assay type: physicochemical; details: in H2O, OVA8 or CpG 5 µM, mean ± SD, n = 3
Procedure: The size and the dispersity of each of the three nanoconstructs in water were determined by Malvern zetasizer. […] (195.1 nm ± 61.1). […] To better understand how PVN nanoparticles are formed, we used LP11[OVA8/CpG/LLP2A] as an example and analyzed the hydrodynamic size, morphology, and spatial distribution of its components in various LP11‐based incomplete PVNs. It is well‐known that Class A CpG ODNs can self‐assemble into nanosized multimers because of their palindromic and poly‐guanine (G) tails.^[ [19], [21], [22] ^] […] To determine whether G‐quadruplex structures formed in the CpG ODN nanoclusters, we used nuclear magnetic resonance (NMR) to detect the CpG structure. […] Furthermore, hybridization with CpG, P3‐OVA8, and LLP2A‐P4 payloads increased the size of the final nanoparticle to 132.6 ± 71.7 nm.
as §1

Substance	zeta potential [1]	IL‐2 production [2]	average hydrodynamic size [3]
TAC‐K‐SIINFEKL [P3‐OVA8]	~0 mV	–	–
CpG: Class A CpG oligonucleotide, toll‐like receptor 9 agonist; 5′ ggGGTCAACGTTGAgggggg 3′, lowercase phosphorothioate (DNA GGGGTCAACGTTGAGGGGGG; DNA, linkages s2 o12 s5 (s phosphorothioate, o phosphodiester), methylation of C not given here; further chemistry not fully specified)	−24.3 ± 13.3 mV	barely induced	62.3 ± 14.2 nm
CCCCGTATGCA [LP11]	~0 mV	barely induced	–

From publication PMC12723328, “Designing Programmable Peptide Nucleic Acid‐based Nanovaccines for Anticancer Immune Activation” (Small (Weinheim an Der Bergstrasse, Germany), 2025)
